Results on ten compounds are retold here after patent US20260015350A1, “AZAQUINAZOLINE PAN-KRAS INHIBITORS” (Mirati Therapeutics, Inc., priority 2022, published 2026).

Test [1] relates to KRas-mediated phosphorylation of ERK in AsPC-1 cells. Kind of test: Inhibition of KRas-mediated phosphorylation of ERK (Cisbio HTRF pERK), AsPC-1 cells. It is filed as cell-based. The following applies: Homo sapiens; for IC50: ASPC1, AsPC-1 cells, HTRF pERK. A digest of the protocol:
(§1)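 Each compound was tested at 10 concentrations, threefold apart with 10 uM the highest, for 3 hrs on 6,000 seeded cells; final DMSO was 0.8% and Trametinib (0.2 uM) served as Min control. Lysed cells were analysed for pERK by HTRF.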
A general note: In TR-FRET formats the signal depends on donor and acceptor labels being close together.

Test [2] has as its system KRas-mediated phosphorylation of ERK in A549 cells. In words: Inhibition of KRas-mediated phosphorylation of ERK (Cisbio HTRF pERK), A549 cells. The class given is cell-based. The following applies: Homo sapiens; for IC50: HTRF pERK. Here is the method: (§2) Inhibition of KRas Phosphorylation of ERK (HTRF) by Exemplary Compounds of Formula (I) Cisbio HTRF Advanced PERK Assay Catalog #64[…] […] Add 10 mL of media to stop trypsinizing. Pipette the cells into a conical bottom 50 mL centrifuge tube and centrifuge 5 min×1000 rpm. […] Re-suspend the cell pellet in media, take a cell count, and then adjust the cell density using fresh media. […] Seed 6,000 cells into cell culture plate with 50 μL media. […] Use Tecan to complete the compound addition. Compounds start from 10 uM top, 3-fold dilution, and 10 doses. The final DMSO concentration is 0.8%. Dispensed 0.2 uM Trametinib as Min control. […] Incubate cell plate for 3 hrs in the incubator. […] Dilute 1 volume of 4× lysis buffer with 3 volumes of deionized water. […] Keep lysis buffer on the ice. […] At the end of the compound treatment, flick-off the media. […] Add 35 μL of lysis buffer per well using a Multidrop Combi. Then place on a plate agitator shaking at 300 rpm at 4° C. for 40 mins. […] Make up the HTRF antibody buffer. For each assay plate, mix 50 μL of d2-conjugate antibody with 950 μL of detection buffer. Similarly, mix 50 μL of Cryptate antibody with 950 μL of detection buffer. Then mix the two diluted antibodies together. […] Dispense 3.4 μL the antibody buffer to wells of an empty assay plate. Seal the plate and centrifuge plate 30 sec×1000 rpm. […] At the end of the 4° C. lysis, centrifuge the lysate plates 3 mins×1500 rpm. […] Use the Bravo to transfer 13.6 μL of lysate from cell culture plate to assay plate. Then incubate assay plate for 2 hrs at room temperature. 8. At the end of incubation, read plate on the Envision after centrifuging plate 30 sec×1000 rpm.

Test [3] concerns KRas-mediated phosphorylation of ERK in H358 cells. In words: Inhibition of KRas-mediated phosphorylation of ERK (Cisbio HTRF pERK), H358 cells. It is filed as cell-based. The conditions noted are these: Homo sapiens; for IC50: NCI-H358, HTRF pERK. Here is the method:
as §2

The subject of test [4] is KRas-mediated phosphorylation of ERK in H727 cells. Kind of test: Inhibition of KRas-mediated phosphorylation of ERK (Cisbio HTRF pERK), H727 cells. The class given is cell-based. The conditions noted are these: Homo sapiens; for IC50: NCI-H727, H727 cells, HTRF pERK. In a few lines: as §1
The target of another test is T1, KRas^G12V (Homo sapiens, UniProt P01116, G12V).
T1 construct: Biotinylated KRas (corresponding to amino acids 1-169, produced at Accelegan Inc.); biotin (biotinylated); purchased Accelegan Inc
Kind of test: KRas binding assay (TR-FRET tracer displacement), KRas G12V.

For the next test, the target named is T2, KRas^G12D (Homo sapiens, UniProt P01116, G12D).
T2 construct: Biotinylated KRas (corresponding to amino acids 1-169, produced at Accelegan Inc.); biotin (biotinylated); purchased Accelegan Inc
In words: KRas binding assay (TR-FRET tracer displacement), KRas G12D.

Another test has as its target T3, KRas^G12R (Homo sapiens, UniProt P01116, G12R).
T3 construct: Biotinylated KRas (corresponding to amino acids 1-169, produced at Accelegan Inc.); biotin (biotinylated); purchased Accelegan Inc
Kind of test: KRas binding assay (TR-FRET tracer displacement), KRas G12R.

Test [5] relates to KRas-mediated phosphorylation of ERK in H460 cells. Kind of test: Inhibition of KRas-mediated phosphorylation of ERK (Cisbio HTRF pERK), H460 cells. It is filed as cell-based. The following applies: Homo sapiens; for IC50: NCI-H460, HTRF pERK; for inhibition at 0.1 µM: NCI-H460, 3 h, single point, 100 nM compound, 3 hrs. How it is done: as §2
Test [6] has as its system KRas-mediated phosphorylation of ERK in HCT116 cells. In words: Inhibition of KRas-mediated phosphorylation of ERK (Cisbio HTRF pERK), HCT116 cells. It is filed as cell-based. The following applies: Homo sapiens; for IC50: HCT-116, HTRF pERK; for inhibition at 0.1 µM: HCT-116, 3 h, single point, 100 nM compound, 3 hrs. How it is done: as §2

Where only a bound is given, the exact number is not on record here.

T2 sequence (P01116 1-169 isoform P01116-2 G12D): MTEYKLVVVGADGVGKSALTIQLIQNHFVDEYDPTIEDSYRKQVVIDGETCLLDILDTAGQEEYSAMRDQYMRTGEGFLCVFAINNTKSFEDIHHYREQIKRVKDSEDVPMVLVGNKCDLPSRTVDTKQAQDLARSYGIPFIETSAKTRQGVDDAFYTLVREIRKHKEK
T1 sequence (P01116 1-169 isoform P01116-2 G12V): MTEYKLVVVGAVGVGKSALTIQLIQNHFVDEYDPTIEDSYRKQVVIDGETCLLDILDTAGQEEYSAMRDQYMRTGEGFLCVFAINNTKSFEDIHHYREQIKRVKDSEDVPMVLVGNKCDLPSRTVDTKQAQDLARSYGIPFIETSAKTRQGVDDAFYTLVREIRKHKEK
T3 sequence (P01116 1-169 isoform P01116-2 G12R): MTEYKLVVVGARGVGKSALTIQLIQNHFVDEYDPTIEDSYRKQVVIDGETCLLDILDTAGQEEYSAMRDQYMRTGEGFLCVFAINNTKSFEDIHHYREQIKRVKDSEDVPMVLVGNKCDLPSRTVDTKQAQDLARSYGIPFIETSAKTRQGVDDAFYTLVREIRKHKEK

Turning to `C=C1CN2CCC[C@]2(COc2nc(N3C[C@@H]4C[C@H](C3)[C@H](O)C4)c3cnc(-c4cc(O)cc5ccc(F)c(CC)c45)c(F)c3n2)C1` [Example 897, (1R,5R,6R)-3-(7-(8-ethyl-7-fluoro-3-hydroxynaphthalen-1-yl)-8-fluoro-2-(((R)-2-methylenetetrahydro-1H-pyrrolizin-7a(5H)-yl)methoxy)pyrido[4,3-d]pyrimidin-4-yl)-3-azabicyclo[3.2.1]octan-6-ol], the IC50 (usually the concentration that gives 50% inhibition) in [1] is 32 nM; in test [2] it was 5 nM; in test [3], 3 nM; in test [4] it was 12 nM.

For `CCc1c(F)ccc2cc(O)cc(-c3ncc4c(N5CCCC6(CCC6)C5)nc(OC[C@@]56CCCN5C[C@H](F)C6)nc4c3F)c12` [Example 549, 5-ethyl-6-fluoro-4-(8-fluoro-2-(((2R,7aS)-2-fluorotetrahydro-1H-pyrrolizin-7a(5H)-yl)methoxy)-4-(6-azaspiro[3.5]nonan-6-yl)pyrido[4,3-d]pyrimidin-7-yl)naphthalen-2-ol], the IC50 on KRas^G12V was determined as 4 nM; in test [1] it was 328 nM; at KRas^G12D, 7 nM; in [4], 208 nM; at KRas^G12R, 8 nM. Also, the inhibition (as a rule, the change of the read-out against control, counted positive when it falls) at 0.1 µM in test [2] (A549, 3 h, single point, 100 nM compound, 3 hrs) was -6%; in test [3] (NCI-H358, 3 h, single point, 100 nM compound, 3 hrs), 3%.

Turning to `CCc1c(F)ccc2cc(O)cc(-c3ncc4c(N5CCC[C@H](C)C5)nc(OC[C@@]56CCCN5C[C@H](F)C6)nc4c3F)c12` [Example 541, 5-ethyl-6-fluoro-4-(8-fluoro-2-(((2R,7aS)-2-fluorohexahydro-1H-pyrrolizin-7a-yl)methoxy)-4-((S)-3-methylpiperidin-1-yl)pyrido[4,3-d]pyrimidin-7-yl)naphthalen-2-ol], the half-maximal inhibitory concentration (IC50) in [1] was determined as 198 nM; in test [5], 107 nM; in [2] it was 216 nM; in [6], 208 nM; in [4], 240 nM.

`CCc1c(F)ccc2cc(O)cc(-c3ncc4c(N5CC6COCC(CO)(C5)C6(F)F)nc(OC[C@@]56CCCN5C[C@H](F)C6)nc4c3F)c12` (stereo partly drawn) [Example 645, 4-(4-(9,9-difluoro-1-(hydroxymethyl)-3-oxa-7-azabicyclo[3.3.1]nonan-7-yl)-8-fluoro-2-(((2R,7aS)-2-fluorotetrahydro-1H-pyrrolizin-7a(5H)-yl)methoxy)pyrido[4,3-d]pyrimidin-7-yl)-5-ethyl-6-fluoronaphthalen-2-ol]: the IC50 at KRas^G12V worked out at 139 nM; in test [1], 4640 nM; on KRas^G12D, 313 nM; in test [4], 3720 nM; on KRas^G12R, 257 nM. Further, the inhibition at 0.1 µM in test [5] was found to be 4%; in test [6], 6%.

Consider `C=C1CN2CCC[C@@]2(COc2nc(N3C[C@@H]4C[C@H](C3)[C@H](O)C4)c3cnc(-c4cc(O)cc5ccc(F)c(CC)c45)c(F)c3n2)C1` [Example 896, (1R,5R,6R)-3-(7-(8-ethyl-7-fluoro-3-hydroxynaphthalen-1-yl)-8-fluoro-2-(((S)-2-methylenetetrahydro-1H-pyrrolizin-7a(5H)-yl)methoxy)pyrido[4,3-d]pyrimidin-4-yl)-3-azabicyclo[3.2.1]octan-6-ol], for which the IC50 stood at 6 nM in test [1], 1 nM in test [2], 1 nM in [3] and 2 nM in test [4].

Take `CCc1c(F)ccc2cc(O)cc(-c3ncc4c(NC[C@@H]5C[C@H](CO)NC5=O)nc(OC[C@@]56CCCN5C[C@H](F)C6)nc4c3F)c12` [Example 576, (3S,5R)-3-(((7-(8-ethyl-7-fluoro-3-hydroxynaphthalen-1-yl)-8-fluoro-2-(((2R,7aS)-2-fluorotetrahydro-1H-pyrrolizin-7a(5H)-yl)methoxy)pyrido[4,3-d]pyrimidin-4-yl)amino)methyl)-5-(hydroxymethyl)pyrrolidin-2-one]: the 50% inhibitory concentration (IC50) at KRas^G12V is 10 nM; on KRas^G12D, 45 nM; in test [4], greater than 10000 nM; on KRas^G12R, 37 nM. Besides, the inhibition at 0.1 µM was 1% in [1] (ASPC1, 3 h, single point, 100 nM compound, 3 hrs, AsPC-1 cells); -3% in [5]; -15% in test [6]; -2% in test [4] (NCI-H727, 3 h, single point, 100 nM compound, 3 hrs, H727 cells).

As to `CCc1c(F)ccc2cc(O)cc(-c3ncc4c(N5CCC[C@@](C)(O)C5)nc(OCC5(CN)CC5)nc4c3F)c12` [Example 536, (R)-1-(2-((1-(aminomethyl)cyclopropyl)methoxy)-7-(8-ethyl-7-fluoro-3-hydroxynaphthalen-1-yl)-8-fluoropyrido[4,3-d]pyrimidin-4-yl)-3-methylpiperidin-3-ol], the IC50 at KRas^G12V was found to be 5 nM; in test [1] it was 4550 nM; on KRas^G12D it was 5 nM; in test [4], 3440 nM; on KRas^G12R it was 9 nM. Besides, the inhibition at 0.1 µM in test [5] was -9%; in test [6], 9%.

As to `CCc1c(F)ccc2cc(O)cc(-c3ncc4c(NCC5(C)CC(=O)NC5=O)nc(OC[C@@]56CCCN5C[C@H](F)C6)nc4c3F)c12` (stereo partly drawn) [Example 566, 3-(((7-(8-ethyl-7-fluoro-3-hydroxynaphthalen-1-yl)-8-fluoro-2-(((2R,7aS)-2-fluorotetrahydro-1H-pyrrolizin-7a(5H)-yl)methoxy)pyrido[4,3-d]pyrimidin-4-yl)amino)methyl)-3-methylpyrrolidine-2,5-dione], the IC50 at KRas^G12V stood at 3 nM; in [1], 760 nM; in test [5], 47 nM; in [2], 130 nM; at KRas^G12D it was 3 nM; in [6] it was 72 nM. In addition, the IC50 was 138 nM in test [4] and less than 2 nM on KRas^G12R.

In the case of `CCc1c(F)ccc2cc(O)cc(-c3ncc4c(N5CC6CCC(CC(=O)NC)(C6)C5)nc(OC[C@@]56CCCN5C[C@H](F)C6)nc4c3F)c12` (stereo partly drawn) [Example 914, 2-(3-(7-(8-ethyl-7-fluoro-3-hydroxynaphthalen-1-yl)-8-fluoro-2-(((2R,7aS)-2-fluorotetrahydro-1H-pyrrolizin-7a(5H)-yl)methoxy)pyrido[4,3-d]pyrimidin-4-yl)-3-azabicyclo[3.2.1]octan-1-yl)-N-methylacetamide], the IC50 at KRas^G12V was 3 nM; in [1], 2380 nM; on KRas^G12D it was 12 nM; in [3], 461 nM; in [4], 1040 nM; on KRas^G12R, 5 nM.

For `C[C@@]1(O)CCCN(c2nc(OCC34CCCN3CCC4)nc3c(F)c(-c4ccc(F)c5sc(N)c(C#N)c45)ncc23)C1` [Example 916, (R)-2-amino-7-fluoro-4-(8-fluoro-4-(3-hydroxy-3-methylpiperidin-1-yl)-2-((tetrahydro-1H-pyrrolizin-7a(5H)-yl)methoxy)pyrido[4,3-d]pyrimidin-7-yl)benzo[b]thiophene-3-carbonitrile], the IC50 at KRas^G12V was 120 nM; in test [1], greater than 10000 nM; at KRas^G12D it was 78 nM; in test [3] it was 8970 nM; in test [4], greater than 10000 nM; at KRas^G12R, 132 nM.
